Measurements taken from PMC6151865, “Targeting protein biotinylation enhances tuberculosis chemotherapy” (Science Translational Medicine, 2018).
Entries after “also recorded” stand apart in the source; their conditions may differ.

Legend:
[1] = tested on: Mtb carrying an Rv3406 overexpression plasmid (pGMEH-Ptb38-rv3406); type: cell-based, Mycobacterium tuberculosis
[2] = tested on: Mtb mutant bioA TetON-1 strain; type: cell-based, Mycobacterium tuberculosis

With `Nc1ncnc2c1ncn2[C@@H]1O[C@H](CNS(=O)(=O)NC(=O)CCCC[C@@H]2SC[C@@H]3NC(=O)N[C@@H]32)[C@@H](O)[C@H]1O` [Bio-AMS, 5′-[N-(d-biotinoyl)sulfamoyl]amino-5′-deoxyadenosine] the “resistance relative to wild-type Mtb” value [1] was 64 fold.

In the case of `CO[C@H]1/C=C/O[C@@]2(C)Oc3c(C)c(O)c4c(O)c(c(/C=N/N5CCN(C)CC5)c(O)c4c3C2=O)NC(=O)/C(C)=C\C=C\[C@H](C)[C@H](O)[C@@H](C)[C@@H](O)[C@@H](C)[C@H](OC(C)=O)[C@@H]1C` [rifampicin], the “sensitivity of bioA TetON-1 compared to wild-type Mtb” value [2] was “more sensitive than wild-type Mtb; also recorded: more resistant than wild-type Mtb”.
